Laboratory results from patent US20250186437A1, “CARBOLINE COMPOUNDS AND USE THEREOF” (PTC Therapeutics, Inc., priority 2021, published 2025).

System: MOLM-13 cells
Experiment: MOLM-13 Cell Proliferation Assay (indicator of DHODH inhibition)
Format: cell-based
Settings: Homo sapiens, 72 Hours of culture, CellTiter-Glo, no uridine
Procedure, shortened: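 Low-passage MOLM-13 cells (10^4/well) in RPMI 1640 + 10% FBS exposed to compound (0.5% DMSO final) for 72 h at 37 °C, 5% CO2. Viability read by CellTiter-Glo luminescence; growth reflects de novo pyrimidine synthesis dependent on DHODH.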

SMILES	IC50
Cc1ccc(C2c3[nH]c4cc(F)c(Cl)cc4c3CCN2c2nc(C#N)cc(C#N)n2)c(F)c1F (stereo not drawn) [Compound 216, 2-[6-chloro-1-(2,3-difluoro-4-methylphenyl)-7-fluoro-1,3,4,9-tetrahydro-2H-pyrido[3,4-b]indol-2-yl]pyrimidine-4,6-dicarbonitrile]	4.8 nM
CN(C)c1ccc(C2c3[nH]c4ccc(Cl)c(F)c4c3CCN2c2ncc(F)cn2)cn1 (stereo not drawn) [Compound 194, 5-[6-chloro-5-fluoro-2-(5-fluoropyrimidin-2-yl)-2,3,4,9-tetrahydro-1H-pyrido[3,4-b]indol-1-yl]-N,N-dimethylpyridin-2-amine]	11.4 nM
Cc1ccc([C@@H]2c3[nH]c4ccc(Cl)cc4c3CCN2c2ncc(F)c(C)n2)c(F)c1F [Compound 187, (1R)-6-chloro-1-(2,3-difluoro-4-methylphenyl)-2-(5-fluoro-4-methylpyrimidin-2-yl)-2,3,4,9-tetrahydro-1H-pyrido[3,4-b]indole]	20.3 nM
Cc1ccnc(N2CCc3c([nH]c4c(N)cc(Cl)cc34)C2c2ccc(N3CCOCC3)nc2)n1 (stereo not drawn) [Compound 351, 6-chloro-2-(4-methylpyrimidin-2-yl)-1-[6-(morpholin-4-yl)pyridin-3-yl]-2,3,4,9-tetrahydro-1H-pyrido[3,4-b]indol-8-amine]	2.1 nM
FC(F)(F)c1cc(C(F)(F)F)nc(N2CCc3c([nH]c4ccc(-n5nccn5)cc34)[C@@H]2c2ccc(N3CCOCC3)nc2)n1 [Compound 485, (1S)-2-[4,6-bis(trifluoromethyl)pyrimidin-2-yl]-1-[6-(morpholin-4-yl)pyridin-3-yl]-6-(2H-1,2,3-triazol-2-yl)-2,3,4,9-tetrahydro-1H-pyrido[3,4-b]indole]	0.6 nM
Cc1cc(C(F)(F)F)nc(N2CCc3c([nH]c4ccc(Cl)c(F)c34)C2c2ccc(C)c(F)c2F)n1 (stereo not drawn) [Compound 206, 6-chloro-1-(2,3-difluoro-4-methylphenyl)-5-fluoro-2-[4-methyl-6-(trifluoromethyl)pyrimidin-2-yl]-2,3,4,9-tetrahydro-1H-pyrido[3,4-b]indole]	0.4 nM
COC(=O)c1nc(N2CCc3c([nH]c4ccc(Cl)cc34)[C@@H]2c2ccc(C)c(F)c2F)nc(C(F)(F)F)n1 [Compound 504, methyl 4-[(1S)-6-chloro-1-(2,3-difluoro-4-methylphenyl)-1,3,4,9-tetrahydro-2H-pyrido[3,4-b]indol-2-yl]-6-(trifluoromethyl)-1,3,5-triazine-2-carboxylate]	30.6 nM
Fc1ccc(C2c3[nH]c4cc(F)c(Cl)cc4c3CCN2c2ncc(C(F)(F)F)cn2)cc1 (stereo not drawn) [Compound 98, 6-chloro-7-fluoro-1-(4-fluorophenyl)-2-[5-(trifluoromethyl)pyrimidin-2-yl]-2,3,4,9-tetrahydro-1H-pyrido[3,4-b]indole]	41.6 nM
Cc1nc(C)nc(N2CCc3c([nH]c4ccc(Br)cc34)C2c2cnc(N3CCOCC3)nc2)n1 (stereo not drawn) [Compound 299, 6-bromo-2-(4,6-dimethyl-1,3,5-triazin-2-yl)-1-[2-(morpholin-4-yl)pyrimidin-5-yl]-2,3,4,9-tetrahydro-1H-pyrido[3,4-b]indole]	6.8 nM
Cc1ccc(C2c3[nH]c4ccc(F)cc4c3CCN2c2nc(C(F)(F)F)cc(C(F)(F)F)n2)c(F)c1F (stereo not drawn) [Compound 490, 2-[4,6-bis(trifluoromethyl)pyrimidin-2-yl]-1-(2,3-difluoro-4-methylphenyl)-6-fluoro-2,3,4,9-tetrahydro-1H-pyrido[3,4-b]indole]	2.8 nM
Cc1ccc([C@@H]2c3[nH]c4ccc(Cl)c(F)c4c3CCN2c2nc(C)c(F)c(C)n2)c(F)c1F [Compound 190, (1R)-6-chloro-1-(2,3-difluoro-4-methylphenyl)-5-fluoro-2-(5-fluoro-4,6-dimethylpyrimidin-2-yl)-2,3,4,9-tetrahydro-1H-pyrido[3,4-b]indole]	420 nM
Cc1cc(C)nc(N2CCc3c([nH]c4cc(F)c(Cl)cc34)C2c2ccc(CCCCO)cc2)n1 (stereo not drawn) [Compound 245, 4-{4-[6-chloro-2-(4,6-dimethylpyrimidin-2-yl)-7-fluoro-2,3,4,9-tetrahydro-1H-pyrido[3,4-b]indol-1-yl]phenyl}butan-1-ol]	3.6 nM

Further lines, results first:

IC50	SMILES
1.4 nM	CN1CCN(c2ncc([C@H]3c4[nH]c5ccc(-n6nccn6)cc5c4CCN3c3nc(C(F)(F)F)nc(C(F)(F)F)n3)cn2)CC1 [Compound 501, (1S)-2-[4,6-bis(trifluoromethyl)-1,3,5-triazin-2-yl]-1-[2-(4-methylpiperazin-1-yl)pyrimidin-5-yl]-6-(2H-1,2,3-triazol-2-yl)-2,3,4,9-tetrahydro-1H-pyrido[3,4-b]indole]
57.8 nM	CCc1ccnc(N2CCc3c([nH]c4cc(F)c(Cl)cc34)C2c2ccc(F)cc2)n1 (stereo not drawn) [Compound 22, 6-chloro-2-(4-ethylpyrimidin-2-yl)-7-fluoro-1-(4-fluorophenyl)-2,3,4,9-tetrahydro-1H-pyrido[3,4-b]indole]
8.2 nM	CN(C)c1ccc(C2c3[nH]c4cc(F)c(Cl)cc4c3CCN2c2nccc(C(F)(F)F)n2)cn1 (stereo not drawn) [Compound 122, 5-{6-chloro-7-fluoro-2-[4-(trifluoromethyl)pyrimidin-2-yl]-2,3,4,9-tetrahydro-1H-pyrido[3,4-b]indol-1-yl}-N,N-dimethylpyridin-2-amine]
1 nM	Cc1ccc(C2c3[nH]c4ccc(Cl)c(F)c4c3CCN2c2nc(C)c(F)c(C)n2)c(F)c1F (stereo not drawn) [Compound 118, 6-chloro-1-(2,3-difluoro-4-methylphenyl)-5-fluoro-2-(5-fluoro-4,6-dimethylpyrimidin-2-yl)-2,3,4,9-tetrahydro-1H-pyrido[3,4-b]indole]
11.2 nM	Fc1cc2[nH]c3c(c2cc1Cl)CCN(c1ncc(C(F)(F)F)cn1)C3c1cccc(F)c1F (stereo not drawn) [Compound 133, 6-chloro-1-(2,3-difluorophenyl)-7-fluoro-2-[5-(trifluoromethyl)pyrimidin-2-yl]-2,3,4,9-tetrahydro-1H-pyrido[3,4-b]indole]
17.6 nM	Fc1c(Cl)ccc2[nH]c3c(c12)CCN(c1ncc(Cl)cn1)C3c1ccc(Cl)cc1 (stereo not drawn) [Compound 27, 6-chloro-1-(4-chlorophenyl)-2-(5-chloropyrimidin-2-yl)-5-fluoro-2,3,4,9-tetrahydro-1H-pyrido[3,4-b]indole]
45.4 nM	CC(C)c1ccnc(N2CCc3c([nH]c4cc(F)c(Cl)cc34)C2c2ccc(F)cc2)n1 (stereo not drawn) [Compound 23, 6-chloro-7-fluoro-1-(4-fluorophenyl)-2-[4-(propan-2-yl)pyrimidin-2-yl]-2,3,4,9-tetrahydro-1H-pyrido[3,4-b]indole]
9.5 nM	FC(F)(F)c1ccnc(N2CCc3c([nH]c4ccc(Cl)cc34)C2c2cnc(N3CCC3)nc2)n1 (stereo not drawn) [Compound 344, 1-[2-(azetidin-1-yl)pyrimidin-5-yl]-6-chloro-2-[4-(trifluoromethyl)pyrimidin-2-yl]-2,3,4,9-tetrahydro-1H-pyrido[3,4-b]indole]
1.8 nM	Cc1ccc(C2c3[nH]c4ccc(Cl)cc4c3CCN2c2nncc(C(F)(F)F)n2)cc1 (stereo not drawn) [Compound 430, 6-chloro-1-(4-methylphenyl)-2-[5-(trifluoromethyl)-1,2,4-triazin-3-yl]-2,3,4,9-tetrahydro-1H-pyrido[3,4-b]indole]
2 nM	Oc1c(F)cccc1C1c2[nH]c3ccc(Cl)cc3c2CCN1c1nccc(C(F)(F)F)n1 (stereo not drawn) [Compound 252, 2-{6-chloro-2-[4-(trifluoromethyl)pyrimidin-2-yl]-2,3,4,9-tetrahydro-1H-pyrido[3,4-b]indol-1-yl}-6-fluorophenol]
0.3 nM	Cc1ccc([C@H]2c3[nH]c4ccc(-n5nccn5)cc4c3CCN2c2nc(C(F)(F)F)cc(C(F)(F)F)n2)c(F)c1F [Compound 519, (1S)-2-[4,6-bis(trifluoromethyl)pyrimidin-2-yl]-1-(2,3-difluoro-4-methylphenyl)-6-(2H-1,2,3-triazol-2-yl)-2,3,4,9-tetrahydro-1H-pyrido[3,4-b]indole]
8.6 nM	CN(C)c1ccc(C2c3[nH]c4cc(F)c(Cl)cc4c3CCN2c2nccc(C(F)(F)F)n2)c(F)c1F (stereo not drawn) [Compound 173, 4-{6-chloro-7-fluoro-2-[4-(trifluoromethyl)pyrimidin-2-yl]-2,3,4,9-tetrahydro-1H-pyrido[3,4-b]indol-1-yl}-2,3-difluoro-N,N-dimethylaniline]
10 nM	Cc1nc(N2CCc3c([nH]c4ccc(Cl)cc34)C2c2cnc(N3CCOCC3)nc2)ncc1F (stereo not drawn) [Compound 366, 6-chloro-2-(5-fluoro-4-methylpyrimidin-2-yl)-1-[2-(morpholin-4-yl)pyrimidin-5-yl]-2,3,4,9-tetrahydro-1H-pyrido[3,4-b]indole]
8.3 nM	Fc1c(Cl)ccc2[nH]c3c(c12)CCN(c1nccc(C(F)(F)F)n1)C3c1cnc(-n2cncn2)nc1 (stereo not drawn) [Compound 230, 6-chloro-5-fluoro-1-[2-(1H-1,2,4-triazol-1-yl)pyrimidin-5-yl]-2-[4-(trifluoromethyl)pyrimidin-2-yl]-2,3,4,9-tetrahydro-1H-pyrido[3,4-b]indole]
7.5 nM	Cc1cnc(N2CCc3c([nH]c4cc(F)c(Cl)cc34)C2c2ccc(C)c(F)c2F)nc1 (stereo not drawn) [Compound 136, 6-chloro-1-(2,3-difluoro-4-methylphenyl)-7-fluoro-2-(5-methylpyrimidin-2-yl)-2,3,4,9-tetrahydro-1H-pyrido[3,4-b]indole]
4.1 nM	OCCCCc1ccc(C2c3[nH]c4cc(F)c(Cl)cc4c3CCN2c2nccc(C(F)(F)F)n2)cc1 (stereo not drawn) [Compound 168, 4-(4-{6-chloro-7-fluoro-2-[4-(trifluoromethyl)pyrimidin-2-yl]-2,3,4,9-tetrahydro-1H-pyrido[3,4-b]indol-1-yl}phenyl)butan-1-ol]
11.3 nM	Cc1ccc([C@@H]2c3[nH]c4ccc(Cl)cc4c3CCN2c2nccc(C(F)(F)F)n2)c(F)c1F [Compound 180, (1R)-6-chloro-1-(2,3-difluoro-4-methylphenyl)-2-[4-(trifluoromethyl)pyrimidin-2-yl]-2,3,4,9-tetrahydro-1H-pyrido[3,4-b]indole]
16.2 nM	Fc1c(Cl)ccc2[nH]c3c(c12)CCN(c1nccc(C(F)(F)F)n1)C3c1cccnc1 (stereo not drawn) [Compound 202, 6-chloro-5-fluoro-1-(pyridin-3-yl)-2-[4-(trifluoromethyl)pyrimidin-2-yl]-2,3,4,9-tetrahydro-1H-pyrido[3,4-b]indole]
